Experimental data reported in US20240358684A1, “METHOD FOR ENHANCING INNATE IMMUNE RESPONSE” (Kyoto University, priority 2021, published 2024).
Entries after “also recorded” stand apart in the source; their conditions may differ.

Legend:
CLK1 = biological target: T1, CLK1 (Homo sapiens, UniProt P49759); experiment: Inhibition confirmation test for CLK (off-chip mobility shift assay); type: biochemical; conditions: at 1 μM; read-out: CLK1 inhibitory activity
T1 construct: Enzyme activity was measured with off-chip mobility shift assay using purified CLK protein
T1 sequence (P49759 whole entry): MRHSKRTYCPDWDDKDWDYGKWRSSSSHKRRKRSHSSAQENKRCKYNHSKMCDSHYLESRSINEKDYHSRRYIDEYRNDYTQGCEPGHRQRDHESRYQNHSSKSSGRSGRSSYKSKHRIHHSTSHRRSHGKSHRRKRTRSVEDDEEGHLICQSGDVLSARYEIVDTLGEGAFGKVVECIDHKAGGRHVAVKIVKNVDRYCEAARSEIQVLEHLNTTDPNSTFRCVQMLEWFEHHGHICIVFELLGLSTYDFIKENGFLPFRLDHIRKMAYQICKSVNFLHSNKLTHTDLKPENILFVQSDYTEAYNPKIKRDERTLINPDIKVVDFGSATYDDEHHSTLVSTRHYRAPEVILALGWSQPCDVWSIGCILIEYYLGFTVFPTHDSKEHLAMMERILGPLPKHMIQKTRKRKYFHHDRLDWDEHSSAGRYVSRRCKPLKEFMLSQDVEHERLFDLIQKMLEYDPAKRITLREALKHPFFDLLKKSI
Protocol: Enzyme activity was measured with off-chip mobility shift assay using purified CLK protein. […] The enzyme reaction was performed at room temperature for 1 hour, and the reaction was terminated by adding QuickScout Screening Assist MSA (Carna Biosciences, Inc.). A substrate peptide and a phosphorylated peptide in the enzyme reaction solution were separated and quantified using the LabChip system (Perkin-Elmer, Waltham, MA, USA), and inhibition of CLK was evaluated by calculating a product ratio using the following formula, the substrate peptide peak height (S), and the phosphorylated peptide peak height (P).
(§1) (P/(P+S)) • P: product-derived peak • S: substrate-derived peak

[1] = tested on: OAS1 rs10774671 A-allele splicing; experiment: RT-PCR for OAS1 alternative splicing profile in Calu-3 (A/A allele) cells; type: cell-based, human; conditions: for yield of the p44a splice form (RT-PCR) / yield of the p44a splice form compared with other compound treatment: Calu-3, 10 μM, 18 hours (Example 2)
CLK2 = biological target: T2, CLK2 (Homo sapiens, UniProt P49760); experiment: Inhibition confirmation test for CLK (off-chip mobility shift assay); type: biochemical; conditions: at 1 μM; read-out: CLK2 inhibitory activity
T2 construct: Enzyme activity was measured with off-chip mobility shift assay using purified CLK protein
T2 sequence (P49760 whole entry): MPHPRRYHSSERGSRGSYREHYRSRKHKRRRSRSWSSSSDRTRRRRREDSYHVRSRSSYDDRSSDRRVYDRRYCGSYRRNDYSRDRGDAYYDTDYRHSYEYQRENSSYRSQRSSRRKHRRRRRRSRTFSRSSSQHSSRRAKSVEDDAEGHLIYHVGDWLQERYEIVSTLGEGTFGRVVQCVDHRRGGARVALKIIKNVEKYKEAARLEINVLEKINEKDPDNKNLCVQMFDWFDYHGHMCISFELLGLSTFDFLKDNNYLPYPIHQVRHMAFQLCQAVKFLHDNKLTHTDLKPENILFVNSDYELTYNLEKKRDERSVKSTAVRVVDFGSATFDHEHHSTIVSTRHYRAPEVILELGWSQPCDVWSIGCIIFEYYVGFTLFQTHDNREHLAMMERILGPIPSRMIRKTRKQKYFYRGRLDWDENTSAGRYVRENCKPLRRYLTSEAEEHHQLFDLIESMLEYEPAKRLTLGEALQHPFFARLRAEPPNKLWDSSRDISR
Protocol: (§2) Enzyme activity was measured with off-chip mobility shift assay using purified CLK protein. DYRKtide-F peptide (1 μM) was used as a substrate, and a composition of a reaction solution used was as follows (20 mM HEPES (pH7.5), 0.01% Triton X-100, 1 mM DT7, 1% DMSO, and ATP (10 μM for CLK1, 150 μM for CLK2, and 75 μM for CLK3)). The enzyme reaction was performed at room temperature for 1 hour, and the reaction was terminated by adding QuickScout Screening Assist MSA (Carna Biosciences, Inc.). A substrate peptide and a phosphorylated peptide in the enzyme reaction solution were separated and quantified using the LabChip system (Perkin-Elmer, Waltham, MA, USA), and inhibition of CLK was evaluated by calculating a product ratio using the following formula, the substrate peptide peak height (S), and the phosphorylated peptide peak height (P).
as §1

CLK3 = biological target: T3, CLK3 (Homo sapiens, UniProt P49761); experiment: as above; type: biochemical; conditions: at 1 μM; read-out: CLK3 inhibitory activity
T3 construct: Enzyme activity was measured with off-chip mobility shift assay using purified CLK protein
T3 sequence (P49761 whole entry): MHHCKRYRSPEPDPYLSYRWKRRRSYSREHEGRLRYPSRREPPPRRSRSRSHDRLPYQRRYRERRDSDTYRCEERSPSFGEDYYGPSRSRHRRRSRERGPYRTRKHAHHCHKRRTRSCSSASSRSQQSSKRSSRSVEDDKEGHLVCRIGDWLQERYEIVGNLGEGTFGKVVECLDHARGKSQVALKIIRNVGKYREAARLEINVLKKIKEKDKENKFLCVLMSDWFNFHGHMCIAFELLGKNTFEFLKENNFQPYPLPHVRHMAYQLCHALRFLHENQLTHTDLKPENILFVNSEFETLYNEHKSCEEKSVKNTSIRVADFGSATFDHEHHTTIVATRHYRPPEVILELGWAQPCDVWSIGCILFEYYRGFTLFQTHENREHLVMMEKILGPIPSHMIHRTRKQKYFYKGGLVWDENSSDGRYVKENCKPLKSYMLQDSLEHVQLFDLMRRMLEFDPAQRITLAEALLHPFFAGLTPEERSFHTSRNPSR
Protocol: as §2, §1

With `c1cncc(-c2ccc3[nH]ncc3c2)c1` [compound 2, 5-pyridin-3-yl-1H-indazole] the inhibition at 1 µM (CLK1) was 98.4%, the “yield of the p44a splice form (RT-PCR)” value [1] was “increased the yield of the p44a splice form” and the “yield of the p44a splice form compared with other compound treatment” value [1] was “higher than that in the compound 1 treatment”. It also gave an inhibition at 1 µM (CLK2) of 90.5% and an inhibition at 1 µM (CLK3) of 21.6%.
`CCN1/C(=C/C(C)=O)Sc2ccc3occc3c21` [compound 3, 1-(1-ethylfuro[3,2-e][1,3]benzothiazol-2-ylidene)propan-2-one] was tested, and the inhibition at 1 µM (CLK1) was 102%, the “yield of the p44a splice form (RT-PCR)” value [1] was “increased the yield of the p44a splice form” and the “yield of the p44a splice form compared with other compound treatment” value [1] was “higher than that in the compound 1 treatment; also recorded: higher than that in the compound 2 treatment”. It also gave an inhibition at 1 µM (CLK2) of 96.5% and an inhibition at 1 µM (CLK3) of 32.9%.
In the case of `CCN1/C(=C/C(C)=O)Sc2ccc(OC)cc21` [compound 4, 1-(3-ethyl-5-methoxy-1,3-benzothiazol-2-ylidene)propan-2-one, reference compound], the “yield of p44a splice form (RT-PCR)” value ([1]; Calu-3, 10 μM or 30 μM, 18 hours (Example 3)) is reported as “increased the yield of p44a splice form”.
